Results published in ChEMBL document CHEMBL4265887 (Bioorg Med Chem Lett, 2018).
pIC50: −log10 of the molar value. Converted amounts (≈) assume the structure as drawn. The source made the active and inactive calls. The calls are words filed in the database; no cut-off is given here.

Columns and labels:
HCT-116 [1] = assay: Cytotoxicity against human HCT116 cells assessed as reduction in cell viability after 48 hrs by MTT assay; format: functional, cell-based; conditions: HCT-116, 48 h
[2] = Solubility of the compound in phosphate buffer of pH 7.4 after 24 hrs by RP-HPLC analysis; format: physicochemical; conditions: for solubility at 24 h: phosphate buffer, pH 7.4
[3] = Solubility of the compound in phosphate buffer of pH 2 after 24 hrs by RP-HPLC analysis; format: physicochemical
HCT-15 = assay: Cytotoxicity against human HCT15 cells assessed as reduction in cell viability after 48 hrs by MTT assay; format: functional, cell-based; conditions: HCT-15, 48 h
HCT-116 [4] = assay: Inhibition of cytokinesis in human HCT116 cells at 100 nM after 24 hrs by propidium iodide/RNase staining-based flow cytometric analysis; format: functional, cell-based
HCT-116 [5] = assay: Inhibition of cytokinesis in human HCT116 cells at 1 uM after 24 hrs by propidium iodide/RNase staining-based flow cytometric analysis; format: functional, cell-based

SMILES	pIC50 (HCT-116 [1])	pIC50 (HCT-15)	further results
CNC(=O)Nc1sc2c(C(C)C)cc(NS(=O)(=O)c3ccc(Cl)cc3)cc2c1C(N)=O	5.15	–	–
Cc1cc(Nc2cc(N3CCN(C)CC3)nc(Sc3ccc(NC(=O)C4CC4)cc3)n2)[nH]n1 [TOZASERTIB]	–	–	solubility ([2]; buffer, pH 7.4, 24 h): 120 µM (≈ 55.8 µg/mL); solubility at 24 h [3]: 120 µM (≈ 55.8 µg/mL)
CC(C)c1cc(NS(C)(=O)=O)cc2c(C(N)=O)c(NC(=O)C3CC3)sc12	5.86	–	–
CNC(=O)Nc1sc2c(C)cc(NS(=O)(=O)c3ccco3)cc2c1C(N)=O	6.02	5.82	solubility at 24 h [2]: 3.9 µM (≈ 1.59 µg/mL); solubility at 24 h [3]: 1.1 µM (≈ 0.449 µg/mL)
CNC(=O)Nc1sc2c(C(C)C)cc(NS(=O)(=O)c3ccco3)cc2c1C(N)=O	5.89	–	solubility at 24 h [2]: 6.7 µM (≈ 2.92 µg/mL); solubility at 24 h [3]: 3.3 µM (≈ 1.44 µg/mL)
CCCS(=O)(=O)Nc1cc(C(C)C)c2sc(NC(=O)NC)c(C(N)=O)c2c1	6.11	5.35	solubility at 24 h [2]: 3 µM (≈ 1.24 µg/mL); solubility at 24 h [3]: 2.8 µM (≈ 1.16 µg/mL)
CNC(=O)Nc1sc2c(C(C)C)cc(NS(=O)(=O)c3ccccc3Cl)cc2c1C(N)=O	5.47	–	–
CNC(=O)Nc1sc2c(C(C)C)cc(NS(=O)(=O)c3cccc(Cl)c3)cc2c1C(N)=O	5.99	5.25	–
CNC(=O)Nc1sc2c(C3CC3)cc(NS(=O)(=O)c3ccn(C)n3)cc2c1C(N)=O	5.92	–	solubility at 24 h [2]: 4.8 µM (≈ 2.15 µg/mL); solubility at 24 h [3]: 3.7 µM (≈ 1.66 µg/mL)
CNC(=O)Nc1sc2c(C(C)C)cc(NS(=O)(=O)c3ccc(C)cc3)cc2c1C(N)=O	5.42	–	–
CNC(=O)Nc1sc2c(C)cc(NS(=O)(=O)c3ccc(C)s3)cc2c1C(N)=O	5.63	–	–
Cc1cc(Nc2cc(N3CCN(C)CC3)nc(Sc3ccc(NC(=O)C4CC4)cc3)n2)n[nH]1 [TOZASERTIB]	6.35	5.91	Cytokinesis inhibition (active/inactive call) (HCT-116 [4]): Active; Cytokinesis inhibition (active/inactive call) (HCT-116 [5]): Active
CNC(=O)Nc1sc2c(C3CC3)cc(NS(=O)(=O)c3cccs3)cc2c1C(N)=O	5.82	–	solubility at 24 h [2]: 1.1 µM (≈ 0.496 µg/mL)
CNC(=O)Nc1sc2c(C(C)C)cc(NS(=O)(=O)C(C)C)cc2c1C(N)=O	5.59	5.06	–
CC(C)c1cc(NS(=O)(=O)c2cccs2)cc2c(C(N)=O)c(NC(=O)C3CC3)sc12	5.34	–	–
CCS(=O)(=O)Nc1cc(C(C)C)c2sc(NC(=O)C3CC3)c(C(N)=O)c2c1	5.63	–	–
CNC(=O)Nc1sc2c(C(C)C)cc(NS(=O)(=O)c3ccccc3C)cc2c1C(N)=O	5.75	–	–
CNC(=O)Nc1sc2c(C(C)C)cc(NS(=O)(=O)c3ccc(C)s3)cc2c1C(N)=O	5.63	5.39	–
CC(C)c1cc(NS(=O)(=O)c2ccn(C)n2)cc2c(C(N)=O)c(NC(=O)C3CC3)sc12	6.12	5.90	–
CNC(=O)Nc1sc2c(C(C)C)cc(NS(C)(=O)=O)cc2c1C(N)=O	5.83	5.38	–
CNC(=O)Nc1sc2c(C)cc(NS(=O)(=O)c3cccs3)cc2c1C(N)=O	6.10	5.66	solubility at 24 h [2]: 12.8 µM (≈ 5.43 µg/mL); solubility at 24 h [3]: 5.3 µM (≈ 2.25 µg/mL)
CC(C)c1cc(NS(=O)(=O)C2CCCCC2)cc2c(C(N)=O)c(NC(=O)C3CC3)sc12	5.00	–	–
Cc1cccc(S(=O)(=O)Nc2cc(C(C)C)c3sc(NC(=O)C4CC4)c(C(N)=O)c3c2)c1	5.05	–	–
CCCCS(=O)(=O)Nc1cc(C(C)C)c2sc(NC(=O)NC)c(C(N)=O)c2c1	6.02	5.39	solubility at 24 h [2]: 4.6 µM (≈ 1.96 µg/mL); solubility at 24 h [3]: 4.3 µM (≈ 1.83 µg/mL)
CCCS(=O)(=O)Nc1cc(C(C)C)c2sc(NC(=O)C3CC3)c(C(N)=O)c2c1	5.21	–	–
CNC(=O)Nc1sc2c(C)cc(NS(=O)(=O)c3ccn(C)n3)cc2c1C(N)=O	5.01	< 5.00	–
